Assay results from US9833497B2, “Human originated EGF domain proteins and use of the same” (CHENGDU SOURCEBIO LIMITED-LIABILITY COMPANY, priority 2013, dated 2017).

What was measured:
Assay type in all cases: cell-based
Moraxella catarrhalis = assay: MIC against Gram-negative bacteria: Moraxella catarrhalis
Outline: (§1)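 MIC = lowest concentration of recombinant protein showing no growth. Test proteins: purified human-derived EGF domain proteins, two-fold dilution series, three wells per concentration; inoculum 5×10^5 CFU/mL in LB; incubation 37° C with shaking at 175 rpm.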

Enterobacter cloacae = assay: MIC against Gram-negative bacteria: Enterobacter cloacae
Outline: as §1

Klebsiella pneumonia = assay: MIC against Gram-negative bacteria: Klebsiella pneumonia
Outline: as §1

Proteus vulgaris = assay: MIC against Gram-negative bacteria: Proteus vulgaris
Outline: as §1

Citrobacter diversus = assay: MIC against Gram-negative bacteria: Citrobacter diversus
Outline: as §1

E. coli DH5α = assay: Antibacterial activity: MIC and growth curve against E. coli DH5α in 96-well plate; settings: minimal inhibitory concentration against E. coli DH5α; 96-well plate, 5×10^5 CFU/mL, 37° C., judged after 8 h
Outline: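 MIC taken as lowest protein level with no bacterial growth, tracked by A600 every 30 min during 37 °C, 175 rpm culture. Two-fold protein series 50-12.5 μg/mL final, triplicate wells, against 5×10^5 CFU/mL of LB-washed mid-log cells.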

Proteus mirabilis = assay: MIC against Gram-negative bacteria: Proteus mirabilis
Outline: as §1

Pseudomonas aeruginosa = assay: MIC against Gram-negative bacteria: Pseudomonas aeruginosa
Outline: as §1

Aeromonas hydrophila = assay: MIC against Gram-negative bacteria: Aeromonas hydrophila
Outline: as §1

E. coli BL21 = assay: MIC against Gram-negative bacteria: E. coli BL21
Outline: as §1

Serratia marcescens = assay: MIC against Gram-negative bacteria: Serratia marcescens
Outline: as §1

[1] = 10 h cultivation at 37° C., 5×10^5 CFU/mL, two-fold serial dilution
[2] = M. catarrhalis, 10 h cultivation at 37° C., 5×10^5 CFU/mL
[3] = E. cloacae, 10 h cultivation at 37° C., 5×10^5 CFU/mL
[4] = K. pneumonia, 10 h cultivation at 37° C., 5×10^5 CFU/mL
[5] = P. vulgaris, 10 h cultivation at 37° C., 5×10^5 CFU/mL
[6] = C. diversus, 10 h cultivation at 37° C., 5×10^5 CFU/mL
[7] = P. mirabilis, 10 h cultivation at 37° C., 5×10^5 CFU/mL
[8] = P. aeruginosa, 10 h cultivation at 37° C., 5×10^5 CFU/mL
[9] = A. hydrophila, 10 h cultivation at 37° C., 5×10^5 CFU/mL
[10] = E. coli BL21, 10 h cultivation at 37° C., 5×10^5 CFU/mL
[11] = S. marcescens, 10 h cultivation at 37° C., 5×10^5 CFU/mL
[12] = 96-well plate, 5×10^5 CFU/mL, 37° C., 10 h
[13] = Moraxella catarrhalis, 96-well plate, 5×10^5 CFU/mL, 37° C., 10 h
[14] = Enterobacter cloacae, 96-well plate, 5×10^5 CFU/mL, 37° C., 10 h
[15] = Klebsiella pneumonia, 96-well plate, 5×10^5 CFU/mL, 37° C., 10 h
[16] = Proteus vulgaris, 96-well plate, 5×10^5 CFU/mL, 37° C., 10 h
[17] = Citrobacter diversus, 96-well plate, 5×10^5 CFU/mL, 37° C., 10 h
[18] = Proteus mirabilis, 96-well plate, 5×10^5 CFU/mL, 37° C., 10 h
[19] = Pseudomonas aeruginosa, 96-well plate, 5×10^5 CFU/mL, 37° C., 10 h
[20] = Aeromonas hydrophila, 96-well plate, 5×10^5 CFU/mL, 37° C., 10 h
[21] = E. coli BL21, 96-well plate, 5×10^5 CFU/mL, 37° C., 10 h
[22] = Serratia marcescens, 96-well plate, 5×10^5 CFU/mL, 37° C., 10 h

## PRT1393 (EERSCHSHCTEHGQCKDGKCECSPGWEGDHCT; listed as Homo sapiens)
Moraxella catarrhalis; Moraxella catarrhalis, 5×10^5 CFU/mL, 10 h cultivation at 37° C.
  MIC against M. catarrhalis: 50 µg/mL
Enterobacter cloacae; Enterobacter cloacae, 5×10^5 CFU/mL, 10 h cultivation at 37° C.
  MIC against E. cloacae: 25 µg/mL
Klebsiella pneumonia; Klebsiella pneumonia, 5×10^5 CFU/mL, 10 h cultivation at 37° C.
  MIC against K. pneumonia: 50 µg/mL
Proteus vulgaris; Proteus vulgaris, 5×10^5 CFU/mL, 10 h cultivation at 37° C.
  MIC against P. vulgaris: 50 µg/mL
Citrobacter diversus; Citrobacter diversus, 5×10^5 CFU/mL, 10 h cultivation at 37° C.
  MIC against C. diversus: 25 µg/mL
E. coli DH5α
  MIC: 25 µg/mL
Proteus mirabilis; Proteus mirabilis, 5×10^5 CFU/mL, 10 h cultivation at 37° C.
  MIC against P. mirabilis: 12.5 µg/mL
Pseudomonas aeruginosa; Pseudomonas aeruginosa, 5×10^5 CFU/mL, 10 h cultivation at 37° C.
  MIC against P. aeruginosa: 25 µg/mL
Aeromonas hydrophila; Aeromonas hydrophila, 5×10^5 CFU/mL, 10 h cultivation at 37° C.
  MIC against A. hydrophila: 12.5 µg/mL
E. coli BL21; E. coli BL21, 5×10^5 CFU/mL, 10 h cultivation at 37° C.
  MIC against E. coli BL21: 12.5 µg/mL
Serratia marcescens; Serratia marcescens, 5×10^5 CFU/mL, 10 h cultivation at 37° C.
  MIC against S. marcescens: 12.5 µg/mL

## PRT1080 (IQSYCAKHLKCSQKCDQNKFSVKCSCYEGWVLEPDGESCR; listed as Homo sapiens)
Moraxella catarrhalis; [1]
  MIC M. catarrhalis: 12.5 µg/mL
Enterobacter cloacae; [1]
  MIC E. cloacae: 50 µg/mL
Klebsiella pneumonia; [1]
  MIC K. pneumonia: 25 µg/mL
Proteus vulgaris; [1]
  MIC P. vulgaris: 25 µg/mL
Citrobacter diversus; [1]
  MIC C. diversus: 12.5 µg/mL
E. coli DH5α
  MIC: 50 µg/mL
Proteus mirabilis; [1]
  MIC P. mirabilis: 12.5 µg/mL
Pseudomonas aeruginosa; [1]
  MIC P. aeruginosa: 12.5 µg/mL
Aeromonas hydrophila; [1]
  MIC A. hydrophila: 12.5 µg/mL
E. coli BL21; [1]
  MIC E. coli BL21: 25 µg/mL
Serratia marcescens; [1]
  MIC S. marcescens: 50 µg/mL

## PRT837 (RFSLCPGGCQSHGQCQPPGVCACEPGWGGPD; listed as Homo sapiens)
Moraxella catarrhalis; [2]
  MIC (μg/mL) M. catarrhalis: 25 µg/mL
Enterobacter cloacae; [3]
  MIC (μg/mL) E. cloacae: 12.5 µg/mL
Klebsiella pneumonia; [4]
  MIC (μg/mL) K. pneumonia: 25 µg/mL
Proteus vulgaris; [5]
  MIC (μg/mL) P. vulgaris: 12.5 µg/mL
Citrobacter diversus; [6]
  MIC (μg/mL) C. diversus: 12.5 µg/mL
E. coli DH5α
  MIC: 25 µg/mL
Proteus mirabilis; [7]
  MIC (μg/mL) P. mirabilis: 12.5 µg/mL
Pseudomonas aeruginosa; [8]
  MIC (μg/mL) P. aeruginosa: 25 µg/mL
Aeromonas hydrophila; [9]
  MIC (μg/mL) A. hydrophila: 25 µg/mL
E. coli BL21; [10]
  MIC (μg/mL) E. coli BL21: 12.5 µg/mL
Serratia marcescens; [11]
  MIC (μg/mL) S. marcescens: 12.5 µg/mL

## PRT1139 (RYNLCDLLHNPCRNNSTCLALVDANQHCICREEFEGKNCE; listed as Homo sapiens)
Moraxella catarrhalis; [1]
  MIC M. catarrhalis: 12.5 µg/mL
Enterobacter cloacae; [1]
  MIC E. cloacae: 50 µg/mL
Klebsiella pneumonia; [1]
  MIC K. pneumonia: 25 µg/mL
Proteus vulgaris; [1]
  MIC P. vulgaris: 12.5 µg/mL
Citrobacter diversus; [1]
  MIC C. diversus: 50 µg/mL
E. coli DH5α
  MIC: 12.5 µg/mL
Proteus mirabilis; [1]
  MIC P. mirabilis: 50 µg/mL
Pseudomonas aeruginosa; [1]
  MIC P. aeruginosa: 12.5 µg/mL
Aeromonas hydrophila; [1]
  MIC A. hydrophila: 12.5 µg/mL
E. coli BL21; [1]
  MIC E. coli BL21: 25 µg/mL
Serratia marcescens; [1]
  MIC S. marcescens: 25 µg/mL

## PRT707 (GKTVCEDFCQNGGTCIVTAGNQPYCHCQPEYTGDRCQ; listed as Homo sapiens)
Moraxella catarrhalis; [12]
  MIC M. catarrhalis: 12.5 µg/mL
Enterobacter cloacae; [12]
  MIC E. cloacae: 12.5 µg/mL
Klebsiella pneumonia; [12]
  MIC K. pneumonia: 12.5 µg/mL
Proteus vulgaris; [12]
  MIC P. vulgaris: 25 µg/mL
Citrobacter diversus; [12]
  MIC C. diversus: 12.5 µg/mL
E. coli DH5α
  MIC: 50 µg/mL
Proteus mirabilis; [12]
  MIC P. mirabilis: 12.5 µg/mL
Pseudomonas aeruginosa; [12]
  MIC P. aeruginosa: 50 µg/mL
Aeromonas hydrophila; [12]
  MIC A. hydrophila: 25 µg/mL
E. coli BL21; [12]
  MIC E. coli BL21: 25 µg/mL
Serratia marcescens; [12]
  MIC S. marcescens: 12.5 µg/mL

## PRT429 (DVNECEAQRCSQECANIYGSYQCYCRQGYQLAEDGHTCT; listed as Homo sapiens)
Moraxella catarrhalis; [2]
  MIC: 12.5 µg/mL
Enterobacter cloacae; [3]
  MIC: 50 µg/mL
Klebsiella pneumonia; [4]
  MIC: 12.5 µg/mL
Proteus vulgaris; [5]
  MIC: 50 µg/mL
Citrobacter diversus; [6]
  MIC: 50 µg/mL
E. coli DH5α
  MIC: 12.5 µg/mL
Proteus mirabilis; [7]
  MIC: 25 µg/mL
Pseudomonas aeruginosa; [8]
  MIC: 50 µg/mL
Aeromonas hydrophila; [9]
  MIC: 12.5 µg/mL
E. coli BL21; [10]
  MIC: 12.5 µg/mL
Serratia marcescens; [11]
  MIC: 25 µg/mL

## PRT40 (KGIDCSDGFNGGCEQLCLQQTLPLPYDATSSTIFMFCGCVEEYKLAPDGKSCL; listed as Homo sapiens)
Moraxella catarrhalis; [13]
  MIC (μg/mL) M. catarrhalis: 12.5 µg/mL
Enterobacter cloacae; [14]
  MIC (μg/mL) E. cloacae: 25 µg/mL
Klebsiella pneumonia; [15]
  MIC (μg/mL) K. pneumonia: 12.5 µg/mL
Proteus vulgaris; [16]
  MIC (μg/mL) P. vulgaris: 25 µg/mL
Citrobacter diversus; [17]
  MIC (μg/mL) C. diversus: 25 µg/mL
E. coli DH5α
  MIC: 25 µg/mL
Proteus mirabilis; [18]
  MIC (μg/mL) P. mirabilis: 12.5 µg/mL
Pseudomonas aeruginosa; [19]
  MIC (μg/mL) P. aeruginosa: 25 µg/mL
Aeromonas hydrophila; [20]
  MIC (μg/mL) A. hydrophila: 50 µg/mL
E. coli BL21; [21]
  MIC (μg/mL) E. coli BL21: 12.5 µg/mL
Serratia marcescens; [22]
  MIC (μg/mL) S. marcescens: 12.5 µg/mL

## PRT109 (ASQACRTNPCLHGGRCLEVEGHRLCHCPVGYTGAFCD; listed as Homo sapiens)
Moraxella catarrhalis; [13]
  MIC (μg/mL) M. catarrhalis: 25 µg/mL
Enterobacter cloacae; [14]
  MIC (μg/mL) E. cloacae: 12.5 µg/mL
Klebsiella pneumonia; [15]
  MIC (μg/mL) K. pneumonia: 12.5 µg/mL
Proteus vulgaris; [16]
  MIC (μg/mL) P. vulgaris: 25 µg/mL
Citrobacter diversus; [17]
  MIC (μg/mL) C. diversus: 12.5 µg/mL
E. coli DH5α
  MIC: 12.5 µg/mL
Proteus mirabilis; [18]
  MIC (μg/mL) P. mirabilis: 12.5 µg/mL
Pseudomonas aeruginosa; [19]
  MIC (μg/mL) P. aeruginosa: 12.5 µg/mL
Aeromonas hydrophila; [20]
  MIC (μg/mL) A. hydrophila: 12.5 µg/mL
E. coli BL21; [21]
  MIC (μg/mL) E. coli BL21: 12.5 µg/mL
Serratia marcescens; [22]
  MIC (μg/mL) S. marcescens: 50 µg/mL

## PRT127 (CSGHCTSYGTNCENGGKCLERYHGYSCDCSNTAYDGTFCN; listed as Homo sapiens)
Moraxella catarrhalis; [13]
  MIC (μg/mL) M. catarrhalis: 12.5 µg/mL
Enterobacter cloacae; [14]
  MIC (μg/mL) E. cloacae: 12.5 µg/mL
Klebsiella pneumonia; [15]
  MIC (μg/mL) K. pneumonia: 25 µg/mL
Proteus vulgaris; [16]
  MIC (μg/mL) P. vulgaris: 12.5 µg/mL
Citrobacter diversus; [17]
  MIC (μg/mL) C. diversus: 12.5 µg/mL
E. coli DH5α
  MIC: 12.5 µg/mL
Proteus mirabilis; [18]
  MIC (μg/mL) P. mirabilis: 12.5 µg/mL
Pseudomonas aeruginosa; [19]
  MIC (μg/mL) P. aeruginosa: 12.5 µg/mL
Aeromonas hydrophila; [20]
  MIC (μg/mL) A. hydrophila: 25 µg/mL
E. coli BL21; [21]
  MIC (μg/mL) E. coli BL21: 12.5 µg/mL
Serratia marcescens; [22]
  MIC (μg/mL) S. marcescens: 12.5 µg/mL

## PRT1030 (DVDECSENRCHPAATCYNTPGSFSCRCQPGYYGDGFQCI; listed as Homo sapiens)
Moraxella catarrhalis; M. catarrhalis, 10 h cultivation at 37° C.
  MIC: 12.5 µg/mL
Enterobacter cloacae; E. cloacae, 10 h cultivation at 37° C.
  MIC: 50 µg/mL
Klebsiella pneumonia; K. pneumonia, 10 h cultivation at 37° C.
  MIC: 12.5 µg/mL
Proteus vulgaris; P. vulgaris, 10 h cultivation at 37° C.
  MIC: 12.5 µg/mL
Citrobacter diversus; C. diversus, 10 h cultivation at 37° C.
  MIC: 50 µg/mL
E. coli DH5α
  MIC: 25 µg/mL
Proteus mirabilis; P. mirabilis, 10 h cultivation at 37° C.
  MIC: 50 µg/mL
Pseudomonas aeruginosa; P. aeruginosa, 10 h cultivation at 37° C.
  MIC: 50 µg/mL
Aeromonas hydrophila; A. hydrophila, 10 h cultivation at 37° C.
  MIC: 25 µg/mL
E. coli BL21; E. coli BL21, 10 h cultivation at 37° C.
  MIC: 12.5 µg/mL
Serratia marcescens; S. marcescens, 10 h cultivation at 37° C.
  MIC: 50 µg/mL
